What was measured:
[1] = Measurement of fluorescence characteristics of compounds (fluorescence spectrophotometer); type: physicochemical; conditions: 5 μM DMSO solution
Method: With respect to each of the compounds 7 to 23, a 5 μM DMSO solution was prepared, and an excitation wavelength and a fluorescence wavelength were measured by using a fluorescence spectrophotometer FL4500 manufactured by Hitachi High-Technologies Corporation (Table 1).

[2] = system: hematopoietic stem cells (bone marrow cells); assay: Identification of hematopoietic stem cells in stained bone marrow cells by FACS with antibody markers (Experimental Examples 1-17, Comparative Examples 1-2); type: cell-based, C57BL/6 mouse; design: key to Identification of hematopoietic stem cells: A: Hematopoietic stem cells are identified very well.; B: Hematopoietic stem cells are identified well.; C: Hematopoietic stem cells are poorly identified; conditions: for Identification of hematopoietic stem cells: mouse bone marrow cells, FACS
Method: A 1 mM DMSO solution of the compound 7 was added to an HBSS buffer containing 2% of FBS and 10 mM of HEPES, so as to obtain a stain of the compound 7 in a concentration of 1 μM. Bone marrow cells collected from a femur of a C57BL/6 mouse (of 12 weeks old) and hemolyzed were added to the stain in an amount of 1×10^6 cells/mL for exposure at 37° C. for 30 minutes. After the exposure, the cells were precipitated by centrifuge for removing the stain, and a blocking treatment was performed with 2.4G2 (anti-mouse Fcγ receptor II/III antibody-producing hybridoma supernatant). The blocked cells were further subjected to immunofluorescence staining with an anti c-Kit antibody, an anti Sca-1 antibody, an anti CD34 antibody and Lineage Marker. Furthermore, the cells were subjected to dead cell staining with TO-PRO-3. The respective antibodies used for fluorescence staining were selected so that the respective fluorescence wavelengths might not overlap one another and might not overlap the fluorescence wavelength of the compound 7 and the fluorescence wavelength of TO-PRO-3. Next, the resulting cells were analyzed with FACS Aria II cell sorter manufactured by BD Biosciences. In the analysis, cell populations having a low TO-PRO-3 signal were regarded as a target, so that the analysis could be performed on a cell population excluding dead cells.
First, fluorescence intensities of the cells obtained by analyzing fluorescence signals derived from the compound 7 based on signal intensities in two channels excited at 488 nm (PE-Cy5; 660/20 nm and PerCP-Cy 5.5; 710/50 nm: center wavelength/wavelength width) were developed into a cytogram.
Furthermore, among Lineage Marker negative cell fractions, cell fractions of Sca-1 positive, c-Kit positive and CD34 negative, which are used as markers for hematopoietic stem cells, were developed into cytograms as illustrated in FIG. 2 with respect to the two fluorescence signals derived from the compound 7 as in FIG. 1. […] Furthermore, merely cells identified by the compound 7 were separated by sorting.
Fluorescence signals derived from the compounds 8 to 23 were analyzed in the same manner as in Experimental Example 1 except that the compound 7 used in Experimental Example 1 was changed to each of the compounds 8 to 23.
Fluorescence signals derived from fluorescein were analyzed in the same manner as in Experimental Example 1 except that the compound 7 used in Experimental Example 1 was changed to fluorescein.
Fluorescence signals derived from Mito Tracker® Green FM were analyzed in the same manner as in Experimental Example 1 except that the compound 7 used in Experimental Example 1 was changed to Mito Tracker® Green FM.
The identification was evaluated in the following three grades A to C: […]

[3] = system: c-Kit positive hematopoietic stem cells (bone marrow cells); assay: Experimental Example 19: exposure to compound 7 in the presence of test substances, c-Kit staining, FACS; type: cell-based, mouse
Method: Cells collected from a mouse in the same manner as in Experimental Example 1 were exposed to the compound 7 in the presence of test substances of fumitremorgin C and digoxin (both in 1 μM). After performing a blocking treatment in the same manner as in Experimental Example 1, the resulting cells were stained with an anti c-Kit antibody, that is, a marker for hematopoietic stem cells and hematopoietic precursor cells. The cells were further subjected to the dead cell staining with TO-PRO-3. Next, the cells were analyzed with FACS Aria II cell sorter manufactured by BD Biosciences. In the analysis, cell populations having a low TO-PRO-3 signal were regarded as a target, so that the analysis could be performed on a cell population excluding dead cells.
In other words, hematopoietic stem cell groups that were c-Kit positive and negative for the compound 7-derived signal were confirmed to be reduced by adding the test substances.

[4] = system: CD48 negative and CD150 positive fraction of bone marrow cells; assay: Experimental Example 18: compound 7 staining with anti CD48 / anti CD150 antibody markers, flow cytometry; type: cell-based, mouse; conditions: cytogram of two compound 7-derived fluorescence signals
From the text: Cells collected from a mouse were subjected to the exposure to the compound 7 and a blocking treatment in the same manner as in Experimental Example 1. In order to evaluate incorporation of antibody markers, used as test substances, of an anti CD48 antibody and an anti CD150 antibody by hematopoietic stem cells, the blocked cells were further stained with the anti CD48 antibody and the anti CD150 antibody. Furthermore, the resulting cells were subjected to dead cell staining with TO-PRO-3. Next, the cells were analyzed with an FACS Canto II flow cytometer manufactured by BD Biosciences. In the analysis, cell populations having a low TO-PRO-3 signal were regarded as a target, so that the analysis could be performed on a cell population excluding dead cells.

[5] = cells exposed to compound 7 in the presence of test substance 1 μM

SMILES | Excitation wavelength λex [1] | Fluorescence wavelength λem [1] | Identification of hematopoietic stem cells ([2]; stain 1 μM, 37° C., 30 minutes) | c-Kit positive, compound 7-derived signal negative hematopoietic stem cells in the whole cells [3, 5] | Whether hematopoietic stem cells can be identified (in words) ([2]; same manner as Experimental Example 1) | Lineage Marker negative, Sca-1 positive, c-Kit positive and CD34 negative hematopoietic stem cell fractions found in cell population having low incorporation of the probe ([2]; stain 1 μM, 37° C., 30 minutes, two channels excited at 488 nm) | Cells of CD48 negative and CD150 positive fraction present in region where hematopoietic stem cells were identified [4] | c-Kit positive, compound 7-derived signal negative hematopoietic stem cells in the whole cells ([3]; in the absence of an inhibitor (w/o inhibitors))
CCN1C(=O)/C(=c2\s/c(=C/c3ccc4c(c3)C3CCCC3N4c3ccccc3)c(=O)n2CC(=O)O)SC1=S (stereo not shown) [Compound 12] | 531 nm | 615 nm | A | – | – | – | – | –
CCCCCN1C(=O)/C(=c2\s/c(=C/c3ccc4c(c3)C3CCCC3N4c3ccc(OC)cc3)c(=O)n2CC)SC1=S (stereo not shown) [Compound 19] | 538 nm | 638 nm | B | – | – | – | – | –
C=CCN1C(=O)/C(=c2\s/c(=C/c3ccc4c(c3)C3CCCC3N4c3ccc(OC)cc3)c(=O)n2CC(=O)O)SC1=S (stereo not shown) [Compound 15] | 504 nm | 606 nm | A | – | – | – | – | –
CCN1C(=O)/C(=c2\s/c(=C/c3ccc4c(c3)C3CCCC3N4Cc3ccccc3)c(=O)n2CC(=O)O)SC1=S (stereo not shown) [Compound 17] | 535 nm | 612 nm | A | – | – | – | – | –
CCN1C(=O)/C(=c2\s/c(=C/c3cc(Br)c4c(c3)C3CCCC3N4c3ccc(Br)cc3)c(=O)n2CC(=O)O)SC1=S (stereo not shown) [Compound 8] | 513 nm | 600 nm | A | – | – | – | – | –
O=C1OC2(c3ccc(O)cc3Oc3cc(O)ccc32)c2ccccc21 [Fluorescein, fluorescein, reference compound] | – | – | C (not stained | – | – | – | – | –
COc1ccc2c3c([nH]c2c1)[C@H](C=C(C)C)N1C(=O)[C@@H]2CCCN2C(=O)[C@@H]1C3 [fumitremorgin C] | – | – | – | 0.00% | – | – | – | –
O=C(O)Cn1c(=O)/c(=C\c2ccc3c(c2)C2CCCC2N3Cc2ccccc2)s/c1=C1/SC(=S)N(Cc2ccccc2)C1=O (stereo not shown) [Compound 10] | 540 nm | 614 nm | A | – | – | – | – | –
CCN1C(=O)/C(=c2\s/c(=C/c3cc(Br)c4c(c3)C3CCCC3N4Cc3ccccc3)c(=O)n2CC(=O)O)SC1=S (stereo not shown) [Compound 14] | 596 nm | 520 nm | A | – | – | – | – | –
C[C@H]1O[C@@H](O[C@H]2[C@@H](O)C[C@H](O[C@H]3[C@@H](O)C[C@H](O[C@H]4CC[C@@]5(C)[C@H](CC[C@@H]6[C@@H]5C[C@@H](O)[C@]5(C)[C@@H](C7=CC(=O)OC7)CC[C@]65O)C4)O[C@@H]3C)O[C@@H]2C)C[C@H](O)[C@@H]1O [digoxin] | – | – | – | 0.50% | – | – | – | –
CCN1C(=O)S/C(=c2/s/c(=C/c3ccc4c(c3)C3CCCC3N4Cc3ccccc3)c(=O)n2CC(=O)O)C1=O (stereo not shown) [Compound 16] | 500 nm | 578 nm | B | – | – | – | – | –
CCN1C(=O)/C(=c2\s/c(=C/c3ccc4c(c3)C3CCCC3N4c3cccc(SC)c3)c(=O)n2CC(=O)O)SC1=S (stereo not shown) [Compound 21] | 530 nm | 612 nm | A | – | – | – | – | –
CCn1c(=O)/c(=C\c2ccc3c(c2)C2CCCC2N3c2ccccc2)s/c1=C1/SC(=S)N(CC(=O)O)C1=O (stereo not shown) [Compound 20] | 533 nm | 615 nm | B | – | – | – | – | –
CCN1C(=O)/C(=c2\s/c(=C/c3ccc4c(c3)C3CCCC3N4c3ccc(SC)cc3)c(=O)n2CC(=O)O)SC1=S (stereo not shown) [Compound 13] | 539 nm | 636 nm | A | – | – | – | – | –
COc1ccc(N2c3ccc(/C=C4/SC(=S)N(CC(=O)NCC(=O)O)C4=O)cc3C3CCCC32)cc1 (stereo not shown) [Compound 22] | 511 nm | 626 nm | A | – | – | – | – | –
CCCCN1C(=O)/C(=c2\s/c(=C/c3ccc4c(c3)C3CCCC3N4c3ccc(OC)cc3)c(=O)n2CC)SC1=S (stereo not shown) [Compound 7] | 539 nm | 638 nm | A | – | hematopoietic stem cells can be identified | 94.7% | 89.4% | 0.75%
CCCN1C(=O)/C(=c2\s/c(=C/c3ccc4c(c3)C3CCCC3N4c3ccc(OC)cc3)c(=O)n2CC)SC1=S (stereo not shown) [Compound 18] | 539 nm | 636 nm | A | – | – | – | – | –
O=C(O)CNC(=O)CN1C(=O)/C(=C\c2ccc3c(c2)C2CCCC2N3c2ccccc2)SC1=S (stereo not shown) [Compound 23] | 499 nm | 598 nm | A | – | – | – | – | –
CCN1C(=O)/C(=c2\s/c(=C/c3ccc4c(c3)C3CCCC3N4c3ccc(OC)cc3)c(=O)n2CC(=O)O)SC1=S (stereo not shown) [Compound 9] | 543 nm | 638 nm | A | – | – | – | – | –
COc1ccc(N2c3ccc(/C=c4/s/c(=C5/SC(=S)N(Cc6ccccc6)C5=O)n(CC(=O)O)c4=O)cc3C3CCCC32)cc1 (stereo not shown) [Compound 11] | 542 nm | 643 nm | A | – | – | – | – | –

From patent US9228952B2, “Hematopoietic stem cell identification probe” (CANON KABUSHIKI KAISHA, priority 2012, dated 2016)
